From patent publication US20230043678A1, “USE OF 5-METHYLTETRAHYDROFOLATE” (priority 2019, published 2023) come the findings set out here.

The test system of one data set is fetal rat heart. Briefly: Effect of high-dose folic acid on fetal rat heart, histopathology (Example 8). Type of data set: in vivo, SD rats. The conditions noted are these: for Development delay / Malformation cases / Malformation rate / Sparse myocardial trabeculae / Ventricular defects/septal defects: fetal rats. As for the experimental part:
28 each of female and male adult healthy SD rats, weighing about 200-250 g, were purchased from SPF (Beijing) biotechnology co., LTD. After all animals were purchased, general physiological indicators, body weight and feeding of the animals were observed. The animals were adaptively fed for one week. […] The animals were fed day and night in natural lighting, and at a room temperature of 18-26° C. and a relative humidity of 40%-70%.
The obtained 16 pregnant mice were randomly divided into 4 groups with 4 rats in each group according to body weight: a normal group, a high-dose folic acid group, a middle-dose folic acid group and a low-dose folic acid group. The high-dose folic acid (36.44 mg/kg) group, the middle-dose folic acid (18.22 mg/kg) group, the low-dose folic acid (9.11 mg/kg) group and a blank control group were separately set. The pregnant mice were intragastrically administrated with a 1 ml/100 g solution. The pregnant mice were given pure water in the normal group. The pregnant mice in the other groups started to be administrated on the 2nd day after grouping once a day for 21 consecutive days. The pregnant mice in each group freely ate and drunk. After the female rats were administrated for 7 days, male and female rats were mated in a cage at a ratio of 1:1 overnight, a vaginal plug was checked the next morning, a day when the vaginal plug was found was regarded as day 0 of pregnancy, the pregnant mice were separately fed and administrated for 21 consecutive days, and a fetus was obtained by cesarean section.
Routine histopathologic paraffin sample preparation, serial section (a thickness of 5 μm) and HE staining were conducted. Sample preparation: routine histopathologic paraffin sample sections were prepared and each sample was 1 paraffin block; and section: each numbered sample had 20 sections. A starting point of mounting was when the paraffin block was sliced, there were ventricular mounting slices and 4 consecutive tissue points were mounted on each glass slide on average. HE staining: there were 20 glass slides for each sample and every other 1 slide was taken for HE staining, a total of 10 slides. Observation and analysis: Leica panoramic image acquisition and comparative analysis were conducted. Fetal rat hearts were dissected and sliced for observation, and the results were as follows.

In a further data set the test system is heart of neonatal mice. The conditions noted are these: mouse, in vivo. As to the method: 75 7-week-old female C57BL/6J mice and 25 8-week-old male C57BL/6J mice were provided by Shanghai Lingchang Biotechnology Co., Ltd. with a certificate number of SCXK (Shanghai) 2018-0003. […] The female mice were randomly divided into 5 groups according to body weight: a solvent control group, a folic acid (151.66 μg/kg) group, a folic acid (303.32 μg/kg) group, a calcium 5-methyltetrahydrofolate (converted to folic acid, 151.66 μg/kg) group and a calcium 5-methyl tetrahydrofolate (converted to folic acid, 303.32 μg/kg) group. 1.1275 unit mass of the calcium 5-methyltetrahydrofolate equaled to 1 unit mass of the folic acid.
15 mice were in each group and numbered by a toe clipping method. The mice were intragastrically administrated once a day on the second day after grouping. One week after the pre-administration, male and female mice were caged at a ratio of […], a vaginal plug was observed every day from the next day, and a day when the vaginal plug was seen was recorded as day 0.5 of pregnancy. After 14 days of caging, the female mice stopped the administration, the male mice were removed, and the pregnant female mice were fed alone until litter.
In addition, 4-5 mice were randomly selected from each group and the 6-day-old small animals were subjected to cardiac echocardiography (Vevo 2100 Imaging System, VisualSonics, Toronto, ON, Canada).

[1] abbreviates: folic acid 9.11 mg/kg intragastric.
Where [2] appears, read: folic acid 18.22 mg/kg intragastric.
[3] abbreviates: folic acid 36.44 mg/kg intragastric.

In the case of `Nc1nc2ncc(CNc3ccc(C(=O)N[C@@H](CCC(=O)O)C(=O)O)cc3)nc2c(=O)[nH]1` [FA, pteroylglutamic acid], in the data set with fetal rat heart (setting [1]), the Development delay is recorded as 1, the Malformation cases is 3, the Malformation rate was found to be 10.7% and the Sparse myocardial trabeculae was determined as 1. This compound also showed a Ventricular defects/septal defects in the data set with fetal rat heart (setting [1]) of 3. In the data set with fetal rat heart (setting [2]), the Development delay came to 1, the Malformation cases was found to be 4, the Malformation rate turned out to be 15.4% and the Sparse myocardial trabeculae came to 2. In the data set with fetal rat heart (setting [2]), the Ventricular defects/septal defects was determined as 2. Besides, in the data set with fetal rat heart (setting [3]), the Development delay amounted to 3, the Malformation cases was 4, the Malformation rate is 25% and the Sparse myocardial trabeculae was 1. For the same compound, the Ventricular defects/septal defects in the data set with fetal rat heart (setting [3]) turned out to be 4. Moreover, the “litter rate of rats” value in the data set on fetal rat heart (folic acid, high dose) was “reduce the litter rate under a high dose”. Further, the “ventricular septum disappeared (number of animals)” value with fetal rat heart (high-dose folic acid group 36.44 mg/kg) came to 1. Also, in the data set with heart of neonatal mice, the “left ventricular internal diameter end-diastole (LVID(d))” value was “significantly lower than those of other groups” and the “left ventricular internal diameter end-systole (LVID(s))” value is recorded as “significantly lower than those of other groups”.
